In PMC5823406, “Vehicle development, pharmacokinetics and toxicity of the anti-invasive agent 4-fluoro-3’,4’,5’-trimethoxychalcone in rodents” (PLoS ONE, 2018):

Assays:
[1] = Half-life in PBS, simulated gastric fluid and simulated intestinal fluid; type: physicochemical; conditions: 1 μM
Source text: (§1) Table 3 In vitro physicochemical, stability and metabolism data. | column: Value

[2] = Liver microsome stability; type: in vitro ADME; conditions: liver microsomes (rat, Sprague-Dawley)
Source text: as §1

`COc1cc(C(=O)/C=C/c2ccc(F)cc2)cc(OC)c1OC` [C16, 4-fluoro-3’,4’,5’-trimethoxychalcone] gave a half-life ([1]; PBS, pH 7.4) greater than 4 h, a half-life ([1]; simulated gastric fluid) greater than 1 h and a half-life ([1]; simulated intestinal fluid) greater than 4 h. For the same molecule, the half-life at 0.1 μM [2] was 0.333 h and the microsomal CLint at 0.1 μM ([2]; read-out: Intr. clearance) was 339 µL/min/mg.
